Measurements reported in patent publication US7655664B2, “Hydantoin derivatives as metalloproteinase inhibitors” (AstraZeneca AB, priority 2004, dated 2010).

Tests used:
Format in all cases: biochemical
[1] = target: T1, Recombinant human MMP12 catalytic domain (Homo sapiens, UniProt P39900); assay: MMP12 isolated enzyme assay (fluorogenic substrate); details: 60 min, room temperature, read-out: hMMP12 IC50
T1 construct: Recombinant human MMP12 catalytic domain; made in house
Description: Recombinant human MMP12 catalytic domain may be expressed and purified as described by Parkar A. A. et al, (2000), Protein Expression and Purification, 20, 152. The purified enzyme can be used to monitor inhibitors of activity as follows: MMP12 (50 ng/ml final concentration) is incubated for 60 minutes at room temperature with the synthetic substrate Mca-Pro-Cha-Gly-Nva-His-Ala-Dpa-NH2 (10 μM) in assay buffer (0.1M “Tris-HCl” (trade mark) buffer, pH 7.3 containing 0.1M NaCl, 20 mM CaCl2, 0.020 mM ZnCl and 0.05% (w/v) “Brij 35” (trade mark) detergent) in the presence (10 concentrations) or absence of inhibitors. Activity is determined by measuring the fluorescence at λex 320 nm and λem 405 nm. Percent inhibition is calculated as follows: % Inhibition is equal to the [Fluorescenceplus inhibitor−Fluorescencebackground] divided by the [Fluorescenceminus inhibitor−Fluorescencebackground]. MMP8

[2] = target: T2, Recombinant human MMP9 catalytic domain (Homo sapiens, UniProt P14780); assay: MMP9 isolated enzyme assay (fluorogenic substrate); details: 30 min, RT, read-out: hMMP9 IC50
T2 sequence (P14780 with tags, fused parts or gaps DEL216-390 limits assumed): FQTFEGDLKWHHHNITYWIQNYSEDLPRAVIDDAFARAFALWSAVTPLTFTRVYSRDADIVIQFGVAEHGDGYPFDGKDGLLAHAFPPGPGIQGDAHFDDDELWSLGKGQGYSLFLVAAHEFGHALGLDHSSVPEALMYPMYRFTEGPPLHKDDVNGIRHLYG
Description: Recombinant human MMP9 catalytic domain was expressed and then purified by Zn chelate column chromatography followed by hydroxamate affinity column chromatography. The enzyme can be used to monitor inhibitors of activity as follows: MMP9 (5 ng/ml final concentration) is incubated for 30 minutes at RT with the synthetic substrate Mca-Pro-Cha-Gly-Nva-His-Ala-Dpa-NH2 (5 μM) in assay buffer (0.1M “Tris-HCl” (trade mark) buffer, pH 7.3 containing 0.1M NaCl, 20 mM CaCl2, 0.020 mM ZnCl and 0.05% (w/v) “Brij 35” (trade mark) detergent) in the presence (10 concentrations) or absence of inhibitors. Activity is determined by measuring the fluorescence at […]. Percent inhibition is calculated as follows: % Inhibition is equal to the [Fluorescenceplus inhibitor−Fluorescencebackground] divided by the [Fluorescenceminus inhibitor−Fluorescencebackground]. MMP14

[3] = target: T3, hMMP8 (APMA-activated pro-MMP8) (Homo sapiens, UniProt P22894); assay: MMP8 isolated enzyme assay (fluorogenic substrate); details: 90 min, 35° C.
T3 construct: purchased Calbiochem
Description: Purified pro-MMP8 is purchased from Calbiochem. The enzyme (at 10 μg/ml) is activated by p-amino-phenyl-mercuric acetate (APMA) at 1 mM for 2.5 h, 35° C. The activated enzyme can be used to monitor inhibitors of activity as follows: MMP8 (200 ng/ml final concentration) is incubated for 90 minutes at 35° C. (80% H2O) with the synthetic substrate Mca-Pro-Cha-Gly-Nva-His-Ala-Dpa-NH2 (12.5 μM) in assay buffer (0.1 M “Tris-HCl” (trade mark) buffer, pH 7.5 containing 0.1M NaCl, 30 mM CaCl2, 0.040 mM ZnCl and 0.05% (w/v) “Brij 35” (trade mark) detergent) in the presence (10 concentrations) or absence of inhibitors. Activity is determined by measuring the fluorescence at λex 320 nm and λem 405 nm. Percent inhibition is calculated as follows: % Inhibition is equal to the [Fluorescenceplus inhibitor−Fluorescencebackground] divided by the [Fluorescenceminus inhibitor−Fluorescencebackground]. MMP9

[4] = target: T4, Recombinant human MMP14 catalytic domain (Homo sapiens, UniProt P50281); assay: MMP14 isolated enzyme assay (fluorogenic substrate); details: 60 min, room temperature, read-out: hMMP14 IC50
T4 construct: Recombinant human MMP14 catalytic domain; made in house
Description: Recombinant human MMP14 catalytic domain may be expressed and purified as described by Parkar A. A. et al, (2000), Protein Expression and Purification, 20, 152. The purified enzyme can be used to monitor inhibitors of activity as follows: MMP14 (10 ng/ml final concentration) is incubated for 60 minutes at room temperature with the synthetic substrate Mca-Pro-Cha-Gly-Nva-His-Ala-Dpa-NH2 (10 μM) in assay buffer (0.1M “Tris-HCl” (trade mark) buffer, pH 7.5 containing 0.1M NaCl, 20 mM CaCl2, 0.020 mM ZnCl and 0.05% (w/v) “Brij 35” (trade mark) detergent) in the presence (5 concentrations) or absence of inhibitors. Activity is determined by measuring the fluorescence at λex 320 nm and λem 405 nm. Percent inhibition is calculated as follows: % Inhibition is equal to the [Fluorescenceplus inhibitor−Fluorescencebackground] divided by the [Fluorescenceminus inhibitor−Fluorescencebackground].

[5] = target: T5, Recombinant human MMP19 catalytic domain (Homo sapiens, UniProt Q99542); assay: MMP19 isolated enzyme assay (fluorogenic substrate); details: 120 min, 35° C., read-out: hMMP19 IC50
T5 construct: Recombinant human MMP19 catalytic domain; made in house
Description: Recombinant human MMP19 catalytic domain may be expressed and purified as described by Parkar A. A. et al, (2000), Protein Expression and Purification, 20:152. The purified enzyme can be used to monitor inhibitors of activity as follows: MMP19 (40 ng/ml final concentration) is incubated for 120 minutes at 35° C. with the synthetic substrate Mca-Pro-Leu-Ala-Nva-Dpa-Ala-Arg-NH2 (5 μM) in assay buffer (0.1M “Tris-HCl” (trade mark) buffer, pH 7.3 containing 0.1M NaCl, 20 mM CaCl2, […] ZnCl and 0.05% (w/v) “Brij 35” (trade mark) detergent) in the presence (5 concentrations) or absence of inhibitors. Activity is determined by measuring the fluorescence at λex 320 nm and λem 405 nm. Percent inhibition is calculated as follows: % Inhibition is equal to the [Fluorescenceplus inhibitor−Fluorescencebackground] divided by the [Fluorescenceminus inhibitor−Fluorescencebackground].

T3 sequence (P22894 101-467): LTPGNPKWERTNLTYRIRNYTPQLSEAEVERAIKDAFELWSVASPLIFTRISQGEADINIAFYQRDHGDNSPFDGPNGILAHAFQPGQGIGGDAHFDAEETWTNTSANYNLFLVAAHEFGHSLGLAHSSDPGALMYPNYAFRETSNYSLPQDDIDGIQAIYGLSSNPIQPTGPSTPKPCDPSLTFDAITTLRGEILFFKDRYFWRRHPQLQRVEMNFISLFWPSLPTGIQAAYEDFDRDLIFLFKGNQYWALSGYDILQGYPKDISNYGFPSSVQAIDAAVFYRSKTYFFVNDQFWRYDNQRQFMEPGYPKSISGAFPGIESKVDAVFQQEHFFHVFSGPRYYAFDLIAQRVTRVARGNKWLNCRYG
T1 sequence (P39900 106-263 limits assumed): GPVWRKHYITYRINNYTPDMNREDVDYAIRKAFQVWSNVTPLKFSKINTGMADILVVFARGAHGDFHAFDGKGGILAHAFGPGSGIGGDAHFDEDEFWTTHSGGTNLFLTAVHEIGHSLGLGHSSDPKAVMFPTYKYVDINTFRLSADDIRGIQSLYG
T5 sequence (Q99542 98-256 limits assumed): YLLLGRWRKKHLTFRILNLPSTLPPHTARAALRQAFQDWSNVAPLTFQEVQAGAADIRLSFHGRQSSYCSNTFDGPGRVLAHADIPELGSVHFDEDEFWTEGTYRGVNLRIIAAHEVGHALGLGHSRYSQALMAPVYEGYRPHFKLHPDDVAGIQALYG

Row | IC50 [1] [µM] | IC50 [2] [µM] | IC50 [3] [µM] | IC50 [4] [µM] | IC50 [5] [µM] | SMILES
1 | 0.0266 | 0.0215 | 2.47 | > 10 |  | C[C@]1(CS(=O)(=O)N2CCc3cc(-c4ccc(C5CC5)nc4)ncc3C2)NC(=O)NC1=O [Example 2, (5S)-5-({[6-(6-Cyclopropylpyridin-3-yl)-3,4-dihydro-2,7-naphthyridin-2(1H)-yl]sulfonyl}methyl)-5-methylimidazolidine-2,4-dione]
2 | 0.00878 | 0.0101 | 3.05 | > 10 | > 10 | C[C@]1(CS(=O)(=O)N2CCc3cc(-c4cnc(C5CC5)nc4)ccc3C2)NC(=O)NC1=O [Example 1, (5S)-5-({[6-(2-Cyclopropylpyrimidin-5-yl)-3,4-dihydroisoquinolin-2(1H)-yl]sulfonyl}methyl)-5-methylimidazolidine-2,4-dione]
3 | 0.0069 | 0.0038 | 1.31 | 8.81 | 3.76 | CC[C@]1(CS(=O)(=O)N2CCc3cc(-c4cnc(C5CC5)nc4)ccc3C2)NC(=O)NC1=O [Example 5, (5S)-5-({[6-(2-Cyclopropylpyrimidin-5-yl)-3,4-dihydroisoquinolin-2(1H)-yl]sulfonyl}methyl)-5-ethylimidazolidine-2,4-dione]
